Results as given in patent US20050120397A1, “Compounds and methods for regulation of spermatid differentiation” (priority 2003, published 2005).
Entries after “also recorded” stand apart in the source; their conditions may differ. Residues, ends and D or L forms follow the SMILES beside them. *: point of attachment. Cbz = O=C(OCc1ccccc1)*; CH2F = FC*

T1: drICE (Drosophila melanogaster, UniProt O01382)
T1 sequence (O01382 29-217 limits assumed): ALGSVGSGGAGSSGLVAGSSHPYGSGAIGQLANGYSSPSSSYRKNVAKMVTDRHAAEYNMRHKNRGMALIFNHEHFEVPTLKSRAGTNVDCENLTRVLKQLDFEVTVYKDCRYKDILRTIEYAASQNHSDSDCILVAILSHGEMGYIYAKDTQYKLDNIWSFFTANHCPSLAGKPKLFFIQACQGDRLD
T1 sequence (O01382 231-339 limits assumed): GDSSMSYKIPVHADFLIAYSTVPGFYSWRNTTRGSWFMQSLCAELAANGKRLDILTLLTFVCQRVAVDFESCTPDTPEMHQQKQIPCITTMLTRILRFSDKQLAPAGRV


Key:
drICE = target: T1, drICE; conditions: cited from earlier work
[1] = test system: spermatid individualization in cultured testes; test: Testes cultures with caspase inhibitor (spermatid individualization); type: cell-based, Drosophila; conditions: isolated testes cultured 24-26 hours at 25° C. with 30 mm Z-VAD(OMe)-FMK
Method: At least 20 testes were examined for each experiment described. Testes of young adults were dissected in testis buffer (TB) which consisted of: 10 mM Tris-HCl, pH 6.8, 183 mM KCl, 47 mM NaCl, 1 mM EDTA, and 1 mM PMSF. Dissected testes were transferred to a […] droplet of TB placed on a siliconized coverslip (GOLD SEAL), opened using thin forceps, and sandwiched with a poly-L-lysine-coated slide. The sandwich was frozen in liquid nitrogen, the coverslip was removed with a razor blade, and the slide was placed in ice-cold absolute ethanol. The slides were drained and a hydrophobic ring surrounding the opaque tissue was drawn using a PAP PEN (Zymed Laboratories Inc.). The tissue was fixed in 4% formaldehyde in PBS for 20 minutes, rinsed twice with PBS for 5 minutes, incubated in PBT (PBS+0.1% Triton X-100) for 30 minutes, and rinsed twice again. The fixed testes were then blocked with PBS/BSA (1% BSA in PBS) for 45 minutes, incubated with primary antibody (diluted in PBS/BSA) within the hydrophobic ring overnight at […] inside a humid chamber, and rinsed twice for 5 minutes in PBS. […] Caspase inhibition of IC caudal movement was determined in vitro, using isolated pairs of testes from young adult flies (n=10). […]

Drosophila S2 cells = conditions: cited from earlier work
[2] = test system: spermatid individualization and male fertility; test: Expression of p35 in male gonads (Hsp83-gal4 x UAS-p35): fertility test and cytological analysis; type: in vivo, Drosophila
[3] = ectopic expression of p35 in male germ cells

| Molecule | activity of drICE in vitro (drICE) | IC (individualization complex) translocation ([1]; versus DMSO control) | cystic bulge (CB) morphology / collection of cytoplasm into CBs ([1]; versus DMSO control testis of same individual) | drICE-induced cell death (Drosophila S2 cells) | CM1-staining (active drICE) [2, 3] | spermatid individualization / CB and WB morphology in vivo [2, 3] | IC translocation in vivo ([2]; male progeny with Hsp83-gal4 driver and UAS-p35 construct) | male fertility ([2]; male progeny with Hsp83-gal4 driver and UAS-p35 construct, parental lines fertile) |
| --- | --- | --- | --- | --- | --- | --- | --- | --- |
| COC(=O)C[C@H](NC(=O)[C@H](C)NC(=O)[C@@H](NC(=O)OCc1ccccc1)C(C)C)C(=O)CF [Z-VAD, Z-VAD(OMe)-FMK] (Cbz-Val-Ala-Asp(OMe)-CH2F) | blocks the activity of drICE in vitro | no evidence of IC translocation | advanced CBs that appeared flat; also recorded: flat, irregular CBs | blocks | – | – | – | – |
| p35: baculoviral broad-spectrum caspase inhibitor p35, expressed in male gonads via the GAL4/UAS system (protein, UniProt P08160 1-299, looked up) Early 35 kDa protein: MCVIFPVEIDVSQTIIRDCQVDKQTRELVYINKIMNTQLTKPVLMMFNISGPIRSVTRKNNNLRDRIKSKVDEQFDQLERDYSDQMDGFHDSIKYFKDEHYSVSCQNGSVLKSKFAKILKSHDYTDKKSIEAYEKYCLPKLVDERNDYYVAVCVLKPGFENGSNQVLSFEYNPIGNKVIVPFAHEINDTGLYEYDVVAYVDSVQFDGEQFEEFVQSLILPSSFKNSEKVLYYNEASKNKSMIYKALEFTTESSWGKSEKYNWKIFCNGFIYDKKSKVLYVKLHNVTSALNKNVILNTIK | – | – | – | – | failing to block CM1-staining | the cytoplasm failed to collect to form a normal CB; also recorded: blocked individualization; also recorded: scattered IC cones and flat CBs and WBs | IC translocation was severely impaired | sterile |
